Data on two compounds can be found in US20070141619A1, “DRUG RESISTANCE-ASSOCIATED GENE AND USE THEREOF” (BANYU PHARMACEUTICAL CO., Ltd., priority 2000, published 2007).

Entries after “also recorded” stand apart in the source; their conditions may differ.

In one data set the test system is LY. As to the kind of experiment: SRB drug sensitivity, LY parental fibroblasts. The following applies: Mus musculus, Fibroblast, 72 hours with agent. Format: cell-based.
The subject of data set [1] is ABCG2. As to the kind of experiment: SRB drug sensitivity, PC-13 transfected with ABCG2 (clone 3). The class given is cell-based, human. The following applies: human; PC-13/ABCG2-3; average ± standard error of three independent experiments. How it is done:
(§1) Test cells in the logarithmic growth phase were dispensed into wells of 96-well plate at 1×10^3 cells/well. After subculture for 24 hours in a CO2 incubator, a serial diluted agent was added to each well. After further incubation for 72 hours, the cells were fixed with trichloroacetic acid (TCA) and the proteins in the cells were stained by 0.4% sulforhodamine B solution. The samples were eluted by 10 mM Tris-HCl for 1 hour, and each well was measured at 560 nm with a 450 nm reference, by a SPECTRAmax 250 plate reader (Molecular Devices Corp.).
(§2) PC-13 cells were transfected with the ABCG2 expression plasmids using Effectene Transfection Reagent (QIAGEN). The experiment was performed according to the attached procedural manual. As a control experiment, other PC-13 cells were transfected with vector alone without the ABCG2 sequence. The two experiments were conducted simultaneously. Two days after the transfection, the original media were replaced with selection media containing 0.2 mg/ml of Geneticin (GIBCO BRL). By culture for a long time under this condition, stable transfectant clones with the introduced plasmids were selected. Two weeks from the transfection, emerging colonies were picked and expression of ABCG2 in the cells was examined by Northern Blot analysis.

The test system of a further data set is PC-13/ABCG2-3. The description is as above. Format: cell-based, human. How it is done:
as §1, §2

The test system of a further data set is PC-13/Vector. As to the kind of experiment: SRB drug sensitivity, PC-13 transfected with vector alone. Format: cell-based. Particulars: Homo sapiens, average ± standard error of three independent experiments. On the procedure:
as §1, §2

Another data set concerns HeLaS3. Put plainly: SRB drug sensitivity, HeLaS3 (Compound-A-sensitive). The class given is cell-based. The following applies: Homo sapiens, HeLa S3, 72 hours with agent.
Another data set concerns PC13. Put plainly: SRB drug sensitivity, PC-13 parental cells. The class given is cell-based. Particulars: Homo sapiens, 72 hours with agent.
In data set [2] the test system is MCF-7 cells expressing introduced BCRP. Particulars: report of Doyle et al. 1998; cited from earlier work.
A further data set relates to LY/NR1. Put plainly: SRB drug sensitivity, Compound-A-resistant LY/NR1. Format: cell-based, mouse. The text has this: A colony that grew under these conditions was isolated using a cloning ring (Asahi Techno Glass Corporation) and designated as LY/NR1.
The subject of data set [3] is MCF-7/R7. Put plainly: SRB drug sensitivity, MCF-7 with introduced ABCG2 of the present invention. The class given is cell-based, human. Particulars: MCF-7/R7 (ABCG2 of the present invention), FIG. 6. On the procedure:
(§3) The full length human ABCG2 cDNA of the present invention prepared in Example 5 was inserted into a plasmid for expression in mammalian cells, followed by transfection of human breast cancer cells, MCF-7 cells, with the ABCG2 expression plasmid using Effectene Transfection Reagent (QIAGEN). Likewise, human breast cancer cells, MCF-7 cells, were transfected with a plasmid including the ABCG2-482T cDNA prepared in Example 10. The experiments were carried out according to an attached procedural manual. As a control experiment, the MCF-7 cells were also transfected with vector alone. The three experiments were conducted simultaneously. Two days from the transfection, the original media were replaced with selective media containing 900 μg/ml of Geneticin (GIBCO BRL). By culture over a prolonged term under this condition, stable transfectant clones with introduced plasmid were selected. Two to three weeks from the transfection, emerging colonies were picked and the expression of ABCG2 in the cells was examined by Northern Blot analysis. Northern Blot analysis was performed as described in Example 4: 8 μg of total RNA prepared from each clone using RNeasy mini kit (QIAGEN) was separated on a formaldehyde denatured agarose gel, followed by analysis using the human ABCG2 cDNA fragment of the present invention as a probe.
(§4) The drug sensitivity of the stable transfectant clones which were established from MCF-7 cells with introduced ABCG2- or ABCG2-482T-expression plasmid, was measured using SRB method as described in Example 2 and the sensitivity of each transfectant to drugs was shown as a relative resistance to the cells with introduced vector alone (FIG. 6).

In the next data set the test system is PC13/NR13. Put plainly: SRB drug sensitivity, Compound-A-resistant PC-13/NR13. Format: cell-based, human.
For another data set, the system named is HeLa#7. As to the kind of experiment: SRB drug sensitivity, spontaneously resistant HeLa#7. The class given is cell-based, human.
Data set [4] has as its system MCF-7/T8. As to the kind of experiment: SRB drug sensitivity, MCF-7 with introduced ABCG2-482T. The class given is cell-based, human. Particulars: MCF-7/T8 (ABCG2-482T). On the procedure: as §3, §4
For another data set, the system named is PC-13/ABCG2-2. Put plainly: SRB drug sensitivity, PC-13 transfected with ABCG2 (clone 2). Format: cell-based, human. How it is done:
as §1, §2

Data set [5] concerns ABCG2. Described as above. Format: cell-based, human. The following applies: human; PC-13/ABCG2-2; average ± standard error of three independent experiments. How it is done:
as §1, §2

A further data set concerns HCT116. As to the kind of experiment: SRB drug sensitivity, HCT116 parental cells. The class given is cell-based. The following applies: Homo sapiens, HCT-116, 72 hours with agent.
Data set [6] relates to PC-13 cell lines with introduced ABCG2. As to the kind of experiment: SRB drug sensitivity, PC-13 cell lines with introduced ABCG2 (stated jointly). The class given is cell-based, human. The following applies: PC-13 cell lines with introduced ABCG2, versus vector alone. On the procedure: as §1, §2
Data set [7] relates to MCF-7/R7. As to the kind of experiment: Mitoxantrone accumulation by flow cytometry in MCF-7/R7. Format: cell-based, human. The following applies: 20 μM Mitoxantrone, 90 min, FIG. 7-(b). On the procedure: (§5) The amount of accumulation of Mitoxantrone in the MCF-7 stable transfectants with introduced ABCG2 of the present invention or ABCG2-482T was measured as follows.
(§6) Cells seeded at 1.0×10^6 cells/well in a 6-well culture plate were incubated for overnight. The next day, the cells in a fresh medium containing 20 μM Mitoxantrone were cultured at 37° C. for 90 min in a CO2 incubator to incorporate the compound into the cells. After a lapse of 90 min, the cells were rapidly chilled on ice, washed once with PBS, detached using 2.5% trypsin. The lysate was centrifuged at 400×g at 4° C. for 3 min to collect the cells. The collected cells were suspended in Hank's Balanced Salt Solutions containing 1% BSA and subjected to fluorimetry of the compound using a flow cytometer, Epics Elite (Beckman Coulter, Inc.). The value was indicated as Intracellular Accumulation (FIG. 7-(b)).
On the technique in general: A flow cytometer gives signals particle by particle.

The test system of the next data set is LY/NR2. Put plainly: SRB drug sensitivity, Compound-A-resistant LY/NR2. The class given is cell-based, mouse. The text has this: An emerging colony was isolated as described above and designated as LY/NR2.
In data set [8] the test system is MCF-7/T8. As to the kind of experiment: Mitoxantrone accumulation by flow cytometry in MCF-7/T8. The class given is cell-based, human. The following applies: 20 μM Mitoxantrone, 90 min, FIG. 7-(b). On the procedure:
as §5, §6

The next data set has as its system HCT116/NR1. As to the kind of experiment: SRB drug sensitivity, Compound-A-resistant HCT116/NR1. Format: cell-based, human. The text has this:
An emerging colony was isolated and designated as HCT116/NR1.

Data set [9] relates to MCF-7/R7. As to the kind of experiment: Rhodamine accumulation by flow cytometry in MCF-7/R7. Format: cell-based, human. The following applies: 5 μM Rhodamine, 30 min, FIG. 7-(c). How it is done:
(§7) The next day, the cells in a fresh medium containing 5 μM Rhodamine were cultured at 37° C. for 30 min in a CO2 incubator to incorporate the compound into the cells. After a lapse of 30 min, the cells were rapidly chilled on ice, washed once with PBS, detached using 2.5% trypsin. […] The collected cells were suspended in Hank's Balanced Salt Solutions with 1% BSA and subjected to fluorometry of the compound using a flow cytometer, FACSCalibur (Becton Dickinson and Company). The value was indicated as Intracellular Accumulation (FIG. 7-(c)).

Data set [10] deals with MCF-7/T8. As to the kind of experiment: Rhodamine accumulation by flow cytometry in MCF-7/T8. Particulars: 5 μM Rhodamine, 30 min, FIG. 7-(c). The class given is cell-based, human. On the procedure:
as §7

In general, IC50 refers to the midpoint of a concentration-inhibition curve. With `O=C1c2c(O)ccc(O)c2C(=O)c2c(NCCNCCO)ccc(NCCNCCO)c21` [Mitoxantrone], the IC50 with LY amounted to 3.3 nM; in the data set with PC-13/Vector it was 52 ± 21 nM; with HeLaS3, 4.4 nM; with PC13, 33 nM; in the data set with LY/NR1 (Mus musculus, LY/NR1, SRB, 72 hours with agent), 7.1 nM; in the data set on PC13/NR13 (Homo sapiens, PC-13, PC13/NR13, SRB, 72 hours with agent) it was 160 nM. In addition, the IC50 in the data set with HeLa#7 (Homo sapiens, HeLa#7, SRB, 72 hours with agent) amounted to 27 nM; in the data set on HCT116, 7 nM; with LY/NR2 (Mus musculus, LY/NR2, SRB, 72 hours with agent) it was 57 nM; in the data set with HCT116/NR1 (Homo sapiens, HCT-116, HCT116/NR1, SRB, 72 hours with agent) it was 67 nM. Also, the figures for the IC50 at 72 h with ABCG2 [1] and in the data set with ABCG2 [5] were 31 ± 18 nM and 22 ± 8 nM, respectively. In addition, the entries for the “Rel. Res. (relative resistance)” value in the data set with PC-13/ABCG2-3 (IC50 PC-13/ABCG2-3 divided by IC50 of vector cells) and in the data set with PC-13/ABCG2-2 (IC50 PC-13/ABCG2-2 divided by IC50 of vector cells) were 0.60 and 0.42, respectively. The “resistance compared to the PC-13 cell with introduced vector alone” value stood at 0.60 fold with PC-13/ABCG2-3 (PC-13/ABCG2-3, Example 8) and 0.42 fold with PC-13/ABCG2-2 (PC-13/ABCG2-2, Example 8). Besides, the resistance in data set [2] was 30 fold. Besides, the “RR: Relative Resistance” value in the data set on LY/NR1 (IC50 LY/NR1 divided by IC50 LY) amounted to 1.5; in the data set with PC13/NR13 (IC50 PC13/NR13 divided by IC50 PC13), 4.9; in the data set with HeLa#7 (IC50 HeLa#7 divided by IC50 HeLaS3) it was 6.1; with LY/NR2 (IC50 LY/NR2 divided by IC50 LY), 17; in the data set with HCT116/NR1 (IC50 HCT116/NR1 divided by IC50 HCT116), 9.6. The “relative resistance to the cells with introduced vector alone” value with MCF-7/R7 [3] was 3.8 fold; with MCF-7/T8 [4] (FIG. 6), 25 fold; with MCF-7/T8 [4] (FIG. 6, listed as mitoxantrone) it was “showed resistance”. Besides, in data set [6], the “resistance of cells in which ABCG2 was forcedly expressed” value is “did not display remarkable resistance; also recorded: not resistant”. For the same compound, the entries for the “Intracellular Accumulation, of that in the cell with introduced vector alone” value in the data set with MCF-7/R7 [7] and in the data set with MCF-7/T8 [8] were “about 50%” and “about 20%”, respectively.

Rhodamine: the “Intracellular Accumulation compared with the cell with introduced vector alone” value with MCF-7/R7 [9] was “almost the same level”. Besides, the “Intracellular Accumulation, of that in the cell with introduced vector alone” value with MCF-7/T8 [10] is on record as “about 50%”.
